The subject of series [1] is Staphylococcus aureus. The series is described as follows: Antibacterial activity against Staphylococcus aureus KCTC 1621 assessed as disruption of cellular structure at 3 x MIC after 1 hr by transmission electron microscopic analysis. The class given is functional, organism-based.
Series [2] deals with Escherichia coli. The series is described as follows: Antibacterial activity against Escherichia coli KCTC 1682 assessed as disruption of cellular structure at 3 x MIC after 1 hr by transmission electron microscopic analysis. The series is classed as functional, organism-based.
Series [3] has as its system Staphylococcus aureus. Nature of the series: Antibacterial activity against Staphylococcus aureus KCTC 1621 assessed as growth inhibition at 50 ug/ml after 18 to 20 hrs by broth microdilution method in presence of trypsin. The series is classed as functional, organism-based.
Series [4] deals with Escherichia coli. The series is described as follows: Antibacterial activity against Escherichia coli KCTC 1682 assessed as growth inhibition at 50 ug/ml after 18 to 20 hrs by broth microdilution method in presence of trypsin. The series is classed as functional, organism-based.
Series [5] relates to Staphylococcus aureus. The series is described as follows: Antibacterial activity against Staphylococcus aureus KCTC 1621 assessed as growth inhibition after 18 to 20 hrs by broth microdilution method in presence of NaCl. The series is classed as functional. A general note: In broth dilution the organism is exposed to a series of concentrations in liquid medium.
Series [6] relates to Bacillus subtilis. Nature of the series: Antibacterial activity against Bacillus subtilis KCTC 3068 assessed as growth inhibition after 18 to 20 hrs by broth microdilution method in presence of NaCl. The series is classed as functional.
In series [7] the test system is Staphylococcus epidermidis. Nature of the series: Antibacterial activity against Staphylococcus epidermidis KCTC 1917 assessed as growth inhibition after 18 to 20 hrs by broth microdilution method in presence of NaCl. The series is classed as functional.
Series [8] relates to Salmonella typhimurium. The series is described as follows: Antibacterial activity against Salmonella typhimurium KCTC 1926 assessed as growth inhibition after 18 to 20 hrs by broth microdilution method in presence of NaCl. The series is classed as functional, Salmonella enterica subsp. enterica serovar Typhimurium. Particulars: Salmonella enterica.
The test system of series [9] is Pseudomonas aeruginosa. Nature of the series: Antibacterial activity against Pseudomonas aeruginosa KCTC 1637 assessed as growth inhibition after 18 to 20 hrs by broth microdilution method in presence of NaCl. The series is classed as functional.
The test system of series [10] is Escherichia coli. The series is described as follows: Antibacterial activity against Escherichia coli KCTC 1682 assessed as growth inhibition after 18 to 20 hrs by broth microdilution method in presence of NaCl. The class given is functional.
Series [11] concerns Staphylococcus aureus. The series is described as follows: Antibacterial activity against methicillin-resistant Staphylococcus aureus CCARM 3095 assessed as growth inhibition after 18 to 20 hrs by broth microdilution method. The class given is functional.
Series [12] in a line: Hemolytic activity in human RBC assessed as hemoglobin release after 1 hr. Particulars: red blood cells (RBC). The series is classed as ADME, cell-based, Erythrocyte.
In series [13] the test system is Staphylococcus aureus. The series is described as follows: Antibacterial activity against Staphylococcus aureus KCTC 1621 assessed as growth inhibition after 18 to 20 hrs by broth microdilution method. The class given is functional.
For series [14], the system named is Bacillus subtilis. Nature of the series: Antibacterial activity against Bacillus subtilis KCTC 3068 assessed as growth inhibition after 18 to 20 hrs by broth microdilution method. The series is classed as functional.
Series [15] has as its system Staphylococcus epidermidis. Nature of the series: Antibacterial activity against Staphylococcus epidermidis KCTC 1917 assessed as growth inhibition after 18 to 20 hrs by broth microdilution method. The class given is functional.
For series [16], the system named is Salmonella typhimurium. The series is described as follows: Antibacterial activity against Salmonella typhimurium KCTC 1926 assessed as growth inhibition after 18 to 20 hrs by broth microdilution method. The series is classed as functional, Salmonella enterica subsp. enterica serovar Typhimurium. Particulars: Salmonella enterica.
Series [17] concerns Pseudomonas aeruginosa. Nature of the series: Antibacterial activity against Pseudomonas aeruginosa KCTC 1637 assessed as growth inhibition after 18 to 20 hrs by broth microdilution method. The class given is functional.
Series [18] concerns Escherichia coli. The series is described as follows: Antibacterial activity against Escherichia coli KCTC 1682 assessed as growth inhibition after 18 to 20 hrs by broth microdilution method. The class given is functional.
Series [19] has as its system Staphylococcus aureus. Nature of the series: Antibacterial activity against methicillin-resistant Staphylococcus aureus CCARM 3089 assessed as growth inhibition after 18 to 20 hrs by broth microdilution method. The series is classed as functional.
Series [20] has as its system Staphylococcus aureus. The series is described as follows: Antibacterial activity against methicillin-resistant Staphylococcus aureus CCARM 3090 assessed as growth inhibition after 18 to 20 hrs by broth microdilution method. The class given is functional.

Activity calls are given as the source filed them. The calls are words filed in the database; no cut-off is given here.

Consider `CCCCCCCCCCn1c[n+](CCCCCCCCCC)cc1C[C@H](NC(=O)[C@@H](N)CCCNC(=N)N)C(=O)N[C@@H](CCCNC(=N)N)C(N)=O`, for which the outcome in the series with Staphylococcus aureus [1] and with Escherichia coli [2] was Active. Besides, the “growth inhibition (GI)” value in the series on Staphylococcus aureus [3] and with Escherichia coli [4] was “Active” throughout. In addition, the minimal inhibitory concentration (MIC) (as a rule, the least concentration at which growth counts as inhibited) turned out to be 4 µg/mL in the series with Staphylococcus aureus [5]; 4 µg/mL in the series on Bacillus subtilis [6]; 4 µg/mL in [7]; 16 µg/mL with Salmonella typhimurium [8]; 8 µg/mL in the series with Pseudomonas aeruginosa [9]; 16 µg/mL in the series with Escherichia coli [10]. Besides, the MIC in the series on Staphylococcus aureus [11] turned out to be 4 µg/mL; in the series with Staphylococcus aureus [13], 4 µg/mL; in the series with Bacillus subtilis [14] it was 4 µg/mL; in series [15], 4 µg/mL; in the series on Salmonella typhimurium [16], 8 µg/mL; in the series with Pseudomonas aeruginosa [17], 8 µg/mL. Besides, the MIC in the series on Escherichia coli [18] is 8 µg/mL; in the series with Staphylococcus aureus [19], 8 µg/mL; in the series with Staphylococcus aureus [20], 4 µg/mL. Also, the HC50 (commonly the concentration giving 50% haemolysis) at 1 h in series [12] came out at 121 µg/mL.

Consider `CCCCCCCCCCn1c[n+](CCCCCCCCCC)cc1C[C@H](N)C(=O)N[C@@H](CCCNC(=N)N)C(=O)N[C@@H](CCCNC(=N)N)C(N)=O`, for which the outcome in the series with Staphylococcus aureus [1] and in the series on Escherichia coli [2] was Active. For the same molecule, the “growth inhibition (GI)” value with Staphylococcus aureus [3] and with Escherichia coli [4] was “Active” each time. Further, the minimum inhibitory concentration (MIC) is 8 µg/mL in the series with Staphylococcus aureus [5]; 4 µg/mL in the series with Bacillus subtilis [6]; 4 µg/mL in series [7]; 16 µg/mL in the series on Salmonella typhimurium [8]; 8 µg/mL with Pseudomonas aeruginosa [9]; 16 µg/mL in the series on Escherichia coli [10]. Also, the minimum inhibitory concentration (MIC) was found to be 4 µg/mL with Staphylococcus aureus [11]; 4 µg/mL with Staphylococcus aureus [13]; 4 µg/mL in the series with Bacillus subtilis [14]; 4 µg/mL in [15]; 8 µg/mL in the series on Salmonella typhimurium [16]; 8 µg/mL in the series on Pseudomonas aeruginosa [17]. Besides, the MIC with Escherichia coli [18] worked out at 8 µg/mL; in the series on Staphylococcus aureus [19] it was 4 µg/mL; in the series on Staphylococcus aureus [20], 4 µg/mL. Besides, in series [12], the HC50 at 1 h came out at 110 µg/mL.

Source of the values: ChEMBL document CHEMBL2424635, “Discovery of novel histidine-derived lipo-amino acids: applied in the synthesis of ultra-short antimicrobial peptidomimetics having potent antimicrobial activity, salt resistance and protease stability” (Eur J Med Chem, 2013).
